Source: patent US20260007597A1, “COMPOSITIONS AND METHODS FOR TREATMENT OF VIRUS-INDUCED AIRWAY FIBROSIS” (priority 2022, published 2026)
Entries after “also recorded” stand apart in the source; their conditions may differ.

Assays:
[1] = test system: SARS-COV-2 pseudovirus (pSARS-2) infected NHBE cells; type: cell-based, human; details: inhibitor added during clotting assay (5 U/ml hirudin, 5 μM dabigatran, 5 μM argatroban), turbidity 350 nm / confocal
[2] = test system: replication competent SARS-COV-2 infected NHBE cells; type: cell-based, human; details: WA-1, beta and delta strains
[3] = target: thrombin (Homo sapiens, UniProt P00734); type: biochemical; details: thrombin ~0.2 U/ml; stoichiometric concentration of hirudin
[4] = test system: pSARS-2 infected NHBE cells (infection-induced cell surface shedding of profibrotic enzymes); type: cell-based, human
[5] = test system: Wuhan pSARS infected NHBE supernatants; type: cell-based, human

Compound	infection-induced fibrin clot formation [1]	fibrin clotting induced by replication competent SARS-CoV-2 infection of NHBE cells [2]	thrombin induced fibrin clotting [3]	fibrin clot formation, inhibitor present during the viral infection [4]	fibrin clotting step, inhibitor added post-infection [5]
hirudin	completely suppressed	inhibited	inhibition	–	–
CC1CNc2c(cccc2S(=O)(=O)N[C@@H](CCCNC(=N)N)C(=O)N2CC[C@@H](C)C[C@@H]2C(=O)O)C1 (stereo partly shown) [argatroban]	inhibited	–	–	–	–
CNC(=O)[C@H](Cc1ccccc1)NC(=O)[C@H](CC(C)C)[C@H](CSc1cccs1)C(=O)NO [BB-94, batimastat]	–	–	–	significantly reduced; also recorded: inhibited; also recorded: reduced fibrin clot formation	did not inhibit
CC1(C)SCCN(S(=O)(=O)c2ccc(Oc3ccncc3)cc2)[C@H]1C(=O)NO [prinomastat]	–	–	–	significantly reduced; also recorded: inhibited	–
